Results reported in patent US20260007634A1, “PHARMACEUTICAL COMPOSITIONS FOR THE TREATMENT OF ALLERGIC DISEASES” (KINKI UNIVERSITY, priority 2022, published 2026).

Assays:
[1] = test system: Monocytes collected from mice; experiment: LPS-induced macrophage activation (CD11b/F4/80 flow cytometry); type: cell-based, mouse; conditions: 10 μM compound, 10 μg/mL LPS, 10 days; control 6.38, LPS only 26.8
Method: Monocytes collected from mice were cultured in RPMI 1640 medium for 1 day. Then, 10 μM mangiferin 8a and 10 μM norathyriol were added to monocytes, and after 1 day of culture, 10 μg/mL of LPS was added, followed by 10 days of culture. After 10 days of culture, cells were stained with anti-CD11b and anti-F4/80 antibodies, markers of macrophages, and expression of CD11b and F4/80 was measured using BD LSRFortessa. Note that CD11b positive and F4/80 positive indicate activated macrophages.

mouse macrophages = experiment: LPS-stimulated macrophage proliferation (trypan blue); type: cell-based; conditions: 10 μM compound, 10 μg/mL LPS 3 days, control 10.65×10^4, LPS 19×10^4
Method: The inhibitory effect of the compound on macrophage cell proliferation was examined using mouse macrophages.
Macrophages collected from mice were cultured in RPMI 1640 medium for 1 day. Then, 10 μM mangiferin 8a and 10 μM norathyriol were added to macrophages, and after 1 day of culture, 10 μg/mL of lipopolysaccharide (LPS) was added to each for 3 days. After 3 days of incubation, the number of viable cells was determined by the trypan blue dye method. Note that LPS was used as an allergic inflammation inducer.
Referring to FIG. 49, the horizontal axis indicates treatment with each compound and the vertical axis indicates cell count (1×10^4 cells/mL). Only 0.5% DMSO in PBS, which was used to dissolve the reagent (compound), was added as control. The LPS group is referred to as the LPS group with 10 μg/mL LPS, the mangiferin 8a group is referred to as the mangiferin 8a group with LPS and mangiferin 8a, and the norathyriol group is referred to as the norathyriol group with LPS and norathyriol.

IL-6 = experiment: LPS-stimulated IL-6 secretion in B cells (ELISA); type: cell-based, mouse; conditions: 10 μM compound, 10 μg/mL LPS 2 days, control 9.46, LPS 246.13
Method: Mouse B cells were used to examine the inhibition of compounds on IL-6 secretion in LPS stimulation.
Mouse B cells were cultured in RPMI 1640 medium for 1 day. Then, 10 μM mangiferin 8a and 10 μM norathyriol were added to B cells, and after 1 day of culture, 10 μg/mL of LPS was added to each, followed by 2 days of culture.
Thus, the samples were divided into “control” with no treatment, “10 μg/mL LPS+10 μM mangiferin 8a” to which 10 μg/mL LPS and 10 μM mangiferin 8a were added, and “10 μg/mL LPS+10 μM norathyriol” to which 10 μg/mL LPS and 10 μM norathyriol were added and only 10 μg/mL LPS was added (“10 μg/L LPS”).
After these samples were incubated for 2 days, the culture supernatant was collected and IL-6 secretion was measured by enzyme-linked immunosorbent assay (ELISA). The mouse IL-6 ELISA kit (R&D) was used for this measurement.

TSLP = experiment: Auricular tissue TSLP ELISA, atopic dermatitis mice; type: in vivo, mouse; conditions: day 7, topical application, control 317, vehicle 1533
Method: MC903 at 2 nM was applied to the right auricle of a 6-week-old male Balb/c (Japan SLC Inc.). Starting 8 h later, 5% norathyriol aqueous solution (1 mL of ethanol containing […] of norathyriol), betamethasone ointment, and delgocitinib ointment were applied to the auricle for 7 days. The measurement of auricular skin swelling was calculated by calipers. The day on which the first application of the compound was made was defined as day 0. Betamethasone and delgocitinib are currently in clinical use in atopic dermatitis and were used as control drugs in this example.
The mouse TSLP ELISA kit (R&D) was used for this measurement.

O=c1c2cc(O)c(O)cc2oc2cc(O)cc(O)c12 [norathyriol, 1,3,6,7-tetrahydroxyxanthone]
CD11b positive and F4/80 positive population (activated macrophages) [1]: 11.6%
number of viable cells (cell count) (mouse macrophages): 7.5×10^4 cells/mL
IL-6 secretion (IL-6): 56.13 pg/mL
TSLP secretion (TSLP): 1026 pg/mL
